Measurements reported in PubChem BioAssay (NCI).
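Assay format: 96-well plates, 48-hour exposure. TGI marks complete inhibition of growth.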

Key:
Experiment in all cases: inhibition of tumour cell growth, NCI panel, 48 h
786-0 renal = test system: 786-0 renal
A498 renal = test system: A498 renal
A549 NSCLC = test system: A549 NSCLC
ACHN renal = test system: ACHN renal
CAKI-1 renal = test system: CAKI-1 renal
CCRF-CEM leukemia = test system: CCRF-CEM leukemia
COLO 205 colon = test system: COLO 205 colon
DLD-1 colon = test system: DLD-1 colon
DMS 114 small cell lung = test system: DMS 114 small cell lung
DMS 273 small cell lung = test system: DMS 273 small cell lung
EKVX NSCLC = test system: EKVX NSCLC
HCC-2998 colon = test system: HCC-2998 colon
HCT-116 colon = test system: HCT-116 colon
HCT-15 colon = test system: HCT-15 colon
HL-60(TB) leukemia = test system: HL-60(TB) leukemia
HOP-18 NSCLC = test system: HOP-18 NSCLC
HOP-62 NSCLC = test system: HOP-62 NSCLC
HOP-92 NSCLC = test system: HOP-92 NSCLC
HT29 colon = test system: HT29 colon
IGROV1 ovarian = test system: IGROV1 ovarian
K-562 leukemia = test system: K-562 leukemia
KM12 colon = test system: KM12 colon
KM20L2 colon = test system: KM20L2 colon
LOX IMVI melanoma = test system: LOX IMVI melanoma
M14 melanoma = test system: M14 melanoma
M19-MEL melanoma = test system: M19-MEL melanoma
MALME-3M melanoma = test system: MALME-3M melanoma
MOLT-4 leukemia = test system: MOLT-4 leukemia
NCI-H226 lung = test system: NCI-H226 lung
NCI-H23 lung = test system: NCI-H23 lung
NCI-H460 lung = test system: NCI-H460 lung
NCI-H522 lung = test system: NCI-H522 lung
OVCAR-3 ovarian = test system: OVCAR-3 ovarian
OVCAR-4 ovarian = test system: OVCAR-4 ovarian
OVCAR-5 ovarian = test system: OVCAR-5 ovarian
OVCAR-8 ovarian = test system: OVCAR-8 ovarian
RPMI-8226 leukemia = test system: RPMI-8226 leukemia
RXF-631 renal = test system: RXF-631 renal
SF-268 CNS = test system: SF-268 CNS
SF-295 CNS = test system: SF-295 CNS
SF-539 CNS = test system: SF-539 CNS
SK-MEL-2 melanoma = test system: SK-MEL-2 melanoma
SK-MEL-28 melanoma = test system: SK-MEL-28 melanoma
SK-OV-3 ovarian = test system: SK-OV-3 ovarian
SN12C renal = test system: SN12C renal
SNB-19 CNS = test system: SNB-19 CNS
SNB-78 CNS = test system: SNB-78 CNS
SW-620 colon = test system: SW-620 colon
TK-10 renal = test system: TK-10 renal
U251 CNS = test system: U251 CNS
UACC-257 melanoma = test system: UACC-257 melanoma
UACC-62 melanoma = test system: UACC-62 melanoma
UO-31 renal = test system: UO-31 renal
XF 498 CNS = test system: XF 498 CNS
LXFL 529 NSCLC = test system: LXFL 529 NSCLC
RXF 393 renal = test system: RXF 393 renal
SK-MEL-5 melanoma = test system: SK-MEL-5 melanoma
SNB-75 CNS = test system: SNB-75 CNS
SR leukemia = test system: SR leukemia

Measured: TGI

COC(=O)C1=C(C)N(NC(N)=O)C2(N)N(NC(N)=O)C(C)=C(C(=O)OC)C12C#N (stereo not drawn)
not listed: LXFL 529 NSCLC | RXF 393 renal | SK-MEL-5 melanoma | SNB-75 CNS | SR leukemia
> 100 µM: all other assays above

CCN(CC)CC(C(C)=O)C(c1ccccc1)c1c(O)c2ccccc2oc1=O (stereo not drawn)
not listed: HOP-92 NSCLC | NCI-H23 lung | RXF-631 renal
> 100 µM: all other assays above

NC(N)=NCCCC(Nc1c2ccccc2nc2ccccc12)C(=O)O (stereo not drawn)
43.4 µM: OVCAR-4 ovarian
not listed: A498 renal | DMS 114 small cell lung | HOP-18 NSCLC | HOP-62 NSCLC | IGROV1 ovarian | SK-OV-3 ovarian | SNB-19 CNS | SNB-78 CNS | UACC-62 melanoma | UO-31 renal | XF 498 CNS | SK-MEL-5 melanoma
> 100 µM: all other assays above

CCOC(=O)C1(C)C2=CC=C(O2)C(C)(C)C2=CC=C(O2)C(C)(C)C2=CC=C(O2)C(C)(C)C2=CC=C1O2
not listed: DLD-1 colon | DMS 114 small cell lung | M14 melanoma | OVCAR-3 ovarian | RPMI-8226 leukemia | UACC-62 melanoma | UO-31 renal | SK-MEL-5 melanoma | SNB-75 CNS
> 100 µM: all other assays above

Cc1cc(C(O)CCCc2ccccc2)cc(C)c1O (stereo not drawn)
78 µM: SNB-75 CNS
48.9 µM: SK-MEL-5 melanoma
92.3 µM: ACHN renal
95.6 µM: UACC-257 melanoma
81.3 µM: A498 renal
60 µM: RXF 393 renal
41.9 µM: HL-60(TB) leukemia
60.4 µM: UO-31 renal
73.8 µM: MOLT-4 leukemia
70.3 µM: SK-MEL-2 melanoma
64.3 µM: MALME-3M melanoma
75.9 µM: EKVX NSCLC
67.2 µM: SNB-19 CNS
93.9 µM: SF-295 CNS
not listed: CAKI-1 renal | DLD-1 colon | DMS 273 small cell lung | HCT-116 colon | HOP-92 NSCLC | HT29 colon | OVCAR-4 ovarian | XF 498 CNS | SR leukemia
> 100 µM: all other assays above

O=S(O)CCCCCSSc1ccc(Cl)cc1
67.5 µM: DLD-1 colon
60.7 µM: KM12 colon
54.4 µM: TK-10 renal
70.3 µM: SNB-78 CNS
89.9 µM: MALME-3M melanoma
34.7 µM: SK-MEL-2 melanoma
91 µM: M19-MEL melanoma
70.5 µM: HT29 colon
66.6 µM: SK-MEL-28 melanoma
91.4 µM: SNB-19 CNS
29.9 µM: LOX IMVI melanoma
29.5 µM: SF-539 CNS
> 100 µM: CCRF-CEM leukemia | EKVX NSCLC | HL-60(TB) leukemia | K-562 leukemia | NCI-H460 lung | OVCAR-4 ovarian | SK-OV-3 ovarian
26.3 µM: UO-31 renal
31.1 µM: SN12C renal
31.3 µM: OVCAR-3 ovarian
73.7 µM: HCC-2998 colon
28.5 µM: NCI-H522 lung
77.2 µM: HCT-116 colon
23.5 µM: SF-268 CNS
59.3 µM: UACC-257 melanoma
46.8 µM: RXF-631 renal
21.7 µM: U251 CNS
36 µM: XF 498 CNS
50.2 µM: OVCAR-5 ovarian
31.4 µM: RXF 393 renal
41.3 µM: HOP-62 NSCLC
44.4 µM: NCI-H23 lung
71.5 µM: M14 melanoma
56.2 µM: SNB-75 CNS
36.6 µM: A498 renal
27 µM: LXFL 529 NSCLC

CCCCN(CCCC)CC(C(=O)Nc1ccc([N+](=O)[O-])cc1[N+](=O)[O-])/C(C)=N\NC(=O)c1ccncc1 (stereo not drawn)
not listed: HCT-116 colon | HOP-18 NSCLC | HT29 colon | KM12 colon | NCI-H226 lung | SR leukemia
> 100 µM: all other assays above

O=C(Nc1ccc(C(F)(F)F)cc1[N+](=O)[O-])C(=O)Nn1c(=S)[nH]c2ccccc2c1=O
not listed: 786-0 renal | M14 melanoma | OVCAR-3 ovarian | LXFL 529 NSCLC
> 100 µM: all other assays above
